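Method: 48-hour compound exposure of cells in 96-well plates, five concentrations, linear interpolation of endpoints. Definition used: TGI = concentration required for complete inhibition of growth.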
Tests used:
Test in all cases: inhibition of tumour cell growth, NCI panel, 48 h
MDA-MB-435 = test system: MDA-MB-435
HOP-62 NSCLC = test system: HOP-62 NSCLC
HCT-116 colon = test system: HCT-116 colon
NCI-H226 lung = test system: NCI-H226 lung
SK-MEL-28 melanoma = test system: SK-MEL-28 melanoma
OVCAR-4 ovarian = test system: OVCAR-4 ovarian
KM12 colon = test system: KM12 colon
UACC-62 melanoma = test system: UACC-62 melanoma
SK-OV-3 ovarian = test system: SK-OV-3 ovarian
M14 melanoma = test system: M14 melanoma
T-47D breast = test system: T-47D breast
NCI-H23 lung = test system: NCI-H23 lung
NCI-H522 lung = test system: NCI-H522 lung
786-0 renal = test system: 786-0 renal
K-562 leukemia = test system: K-562 leukemia
HS 578T breast = test system: HS 578T breast
EKVX NSCLC = test system: EKVX NSCLC
MDA-MB-231 breast = test system: MDA-MB-231 breast
DU-145 prostate = test system: DU-145 prostate
MDA-N = test system: MDA-N

Row | Structure (SMILES) | TGI (MDA-MB-435) [µM] | TGI (HOP-62 NSCLC) [µM] | TGI (HCT-116 colon) [µM] | TGI (NCI-H226 lung) [µM] | TGI (SK-MEL-28 melanoma) [µM] | TGI (OVCAR-4 ovarian) [µM] | TGI (KM12 colon) [µM] | TGI (UACC-62 melanoma) [µM] | TGI (SK-OV-3 ovarian) [µM] | TGI (M14 melanoma) [µM] | TGI (T-47D breast) [µM] | TGI (NCI-H23 lung) [µM] | TGI (NCI-H522 lung) [µM] | TGI (786-0 renal) [µM] | TGI (K-562 leukemia) [µM] | TGI (HS 578T breast) [µM] | TGI (EKVX NSCLC) [µM] | TGI (MDA-MB-231 breast) [µM] | TGI (DU-145 prostate) [µM] | TGI (MDA-N) [µM]
1 | S=C1N=C(Cl)/C(=C\c2ccco2)N1 | > 100 | > 100 | > 100 | > 100 | > 100 | > 100 | > 100 | > 100 | > 100 | > 100 | > 100 | > 100 | > 100 | > 100 | > 100 | > 100 | > 100 | > 100 | > 100 | 
2 | O=[N+]([O-])C(=C(Nc1ccccc1)Nc1ccccc1)/C(Cl)=C(\Cl)Br |  | 55.1 | 20.1 | 14.4 | 29.9 | 27.3 | 26.2 |  |  | 20.1 | 44.8 | 29.1 | 8.72 | 31.2 | 13.2 | > 100 | 32.1 | 29 | 31.1 | 
3 | COc1ccc(N=Nc2ccc3oc(=O)c(C(=O)Nc4ccc(Cl)cc4)cc3c2)cc1 | > 10 | > 10 |  | > 10 | > 10 | > 10 | > 10 |  | > 10 | > 10 | > 10 | > 10 | > 10 | > 10 |  | > 10 | > 10 | > 10 | > 10 | > 10
4 | CCOP(=O)(OCC)[C@]12C[C@@H](C)C=C[C@H]1COC2=O | > 100 | > 100 | > 100 |  | > 100 | > 100 | > 100 | > 100 | > 100 | > 100 | > 100 | > 100 | > 100 | > 100 | > 100 | > 100 | > 100 | > 100 | > 100 | > 100
5 | CC(=O)C(=[N+]=[N-])C(=O)OCCOC(=O)C(=[N+]=[N-])C(C)=O | > 1 | > 1 | > 1 | > 1 | > 1 |  | > 1 | > 1 | > 1 | > 1 | > 1 | > 1 |  | > 1 | > 1 | > 1 | > 1 | > 1 | > 1 | > 1
6 | CC1(C)N=C(C(=O)c2ccccc2)N(O)C1(O)c1ccccc1 (stereo not drawn) | > 100 | > 100 | > 100 | > 100 | > 100 | > 100 | > 100 | > 100 | > 100 | > 100 | > 100 | > 100 |  | > 100 | > 100 | > 100 | > 100 | > 100 | > 100 | > 100
